Experiments:
Assay type in all cases: biochemical, human
PAI-1 deficient plasma = assay: CLSM thrombelastography with tPA, PAI-1 deficient plasma; conditions: 100 μM CORM-2, tPA 100 IU/mL, median, n=8
Method: (§1) Pooled normal plasma (George King Bio-Medical, Overland Park, Kans.) anticoagulated with sodium citrate was utilized for experimentation. […] Factor XIII (FXIII) deficient plasma anticoagulated with sodium citrate was also obtained from the same vendor.
(§2) Plasma Sample Composition. The final volume for all subsequently described plasma sample mixtures was 359.4 μL. Sample composition consisted of 316 μL of plasma; 10 μL of tissue factor (0.1% final concentration in 0.9% NaCl; Diagnostica Stago, Asnieres, France), 3.6 μL of dimethyl sulfoxide (DMSO) or DMSO with CORM-2 (Sigma-Aldrich, St. Louis, Mo.) or DMSO with inactivated CORM-2 (iCORM-2), 10 μL of tissue-type plasminogen activator (tPA, 580 U/μg, Genentech, Inc., San Francisco, Calif.) diluted with 10 mM potassium phosphate buffer (pH 7.4) for a final activity of 100 IU/mL, and 20 μL of 200 mM CaCl2. […] This concentration of CORM-2 was chosen because the concentration of CO released would be expected to be in the mid to lower ranges used in previously reported ex vivo, in vitro, and cell-based experiments (Motterlini et al. 2002; Megias et al. 2007; Chlopicki et al. 2006; Dong et al. 2008). […] (Motterlini et al. 2005). While CORM-2 decays slowly in DMSO, DMSO was added to the dry compound just prior to placement into the plasma mixture. The specific series of experiments are subsequently presented.
(§3) Assessment of the Effects of CORM-2 on CLSM Parameters in FXIII, PAI-1, TAFI and α2-antiplasmin Deficient Plasmas. These experiments were performed to elucidate the roles played by antifibrinolytic enzymes during CORM-2 mediated modulation of fibrinolysis. Samples of the various deficient plasmas were exposed to 0 or 100 μM of CORM-2 (n=8 per condition). Samples underwent CLSM analyses as subsequently described.
(§4) Clot Lifespan Model Analyses. As described in Example 1, plasma sample mixtures were placed in a disposable cup in a computer-controlled THROMBELASTOGRAPH® hemostasis system (Model 5000, Haemoscope Corp., Niles, Ill.), with addition of CaCl2 as the last step to initiate clotting. Data were collected until clot lysis time occurred. […] As this model involves complete fibrinolysis, TTG is equivalent to ACL, so ACL was not presented as it provides no additional information.
(§5) Statistical Analyses. Data are presented as median (1st, 3rd quartiles). […] Nonlinear and linear analyses and curve fitting of the various CORM-2 concentrations effects on CLSM variables were performed with commercially available software (SigmaPlot 11.0, Systat Software, Inc., San Jose, Calif.). Analyses of the effects of CORM-2 and iCORM-2 on CLSM variables in normal plasma were conducted with Kruskal-Wallis one way analysis of variance on ranks, whereas Mann-Whitney rank sum tests were used to assess the effects of CORM-2 on CLSM variables in the various immunodepleted/congenitally deficient plasma types (SigmaStat 3.1, Systat Software, Inc., San Jose, Calif.). Graphical representation of the data was generated with commercially available software (SigmaPlot 11.0, Systat Software, Inc., San Jose, Calif.; CorelDRAW 12.0, Corel Corporation, Ottawa, Ontario, Canada; Origin 7.5, OriginLab Corp., Northampton, Mass.). A P value of <0.05 was considered significant.

[1] = tested on: α2-antiplasmin deficient plasma; assay: CLSM thrombelastography with tPA, α2-antiplasmin deficient plasma
Method: as §1, §2, §3, §4, §5

TAFI deficient plasma = assay: CLSM thrombelastography with tPA, TAFI deficient plasma; conditions: 100 μM CORM-2, tPA 100 IU/mL, median, n=8
Method: as §1, §2, §3, §4, §5

[2] = 100 μM CORM-2, tPA 100 IU/mL, median, n=8

## [C-]#[O+].[C-]#[O+].[C-]#[O+].[C-]#[O+].[C-]#[O+].[C-]#[O+].[Cl][Ru][Cl].[Cl][Ru][Cl] [CORM-2, tricarbonyldichlororuthenium (II) dimer]
PAI-1 deficient plasma
  CGT (clot growth time): 500 s
  CLS (clot lifespan): 1565 s
  CLT (clot lysis time): 1070 s
  MRL (maximum rate of lysis): −2.2 -dynes/cm^2/sec
  MRTG (maximum rate of thrombus generation): 9.4 dynes/cm^2/sec
  TMRL (time to maximum rate of lysis): 750 s
  TMRTG (time to maximum rate of thrombus generation): 160 s
  TTG (total thrombus generation): 228 dynes/cm^2
[1]; [2]
  CGT (clot growth time): 188 s
  CLS (clot lifespan): 378 s
  CLT (clot lysis time): 190 s
  MRL (maximum rate of lysis): −10.0 -dynes/cm^2/sec
  MRTG (maximum rate of thrombus generation): 10.1 dynes/cm^2/sec
  TMRL (time to maximum rate of lysis): 68 s
  TMRTG (time to maximum rate of thrombus generation): 160 s
  TTG (total thrombus generation): 231 dynes/cm^2
[1]; 100 μM CORM-2 vs unexposed
  increase of CLS: 14%
  increase of the velocity of clot formation: 35%
  prolongation of CLT: 23%
TAFI deficient plasma
  CGT (clot growth time): 410 s
  CLS (clot lifespan): 370 s
  CLT (clot lysis time): 932 s
  MRL (maximum rate of lysis): −1.4 -dynes/cm^2/sec
  MRTG (maximum rate of thrombus generation): 6.1 dynes/cm^2/sec
  TMRL (time to maximum rate of lysis): 612 s
  TMRTG (time to maximum rate of thrombus generation): 175 s
  TTG (total thrombus generation): 142 dynes/cm^2

— patent publication US8697747B2, “Enhancing coagulation or reducing fibrinolysis” (THe UAB Research Foundation, priority 2009, dated 2014)
